# Test results: patent US20190062761A1, “ULTRASOUND METHOD” (INSTITUTE OF SCIENCE AND TECHNOLOGY AUSTRIA (IST AUSTRIA), priority 2016, published 2019)
# Columns and labels:
# [1] = system: light-activated gene transcription plasmid pDAWN; experiment: Induction of mCherry expression by SCL and pDAWN in E. coli; format: cell-based
# Method: (§1) For starting cultures, E. coli BL21 (DE) cells transformed with pDAWN were grown overnight (225 rpm, 37° C.) in LB medium (pH 7.0; Sigma) supplemented with 50 μg/ml kanamycin (Sigma). Cells were then diluted 100-fold in fresh LB medium (pH 8.0) and growth was allowed to reach OD600˜0.4 (7.3×10^7 CFU/ml) under non-inducing conditions (i.e. in the dark). For US experiments, 250 ml of these cultures were centrifuged (4700 rpm, 5 min) and resuspended in 200 ml M9 minimal medium (1×M9 salts, 2 mM MgSO4, 0.1 mM CaCl2, 0.4% glucose, buffered with 0.05 M Tris, pH 9.0). Each culture was treated with US for 3 h. After stimulation, aliquots (50 ml) were centrifuged, resuspended (in M9 minimal media) and incubated in 96-well plates overnight under non-inducing conditions (dark) to allow mCherry maturation.
# [2] = system: M38K^Opto-mFGFR1 cells; experiment: EMT-like morphology changes (aspect ratio) in M38K Opto-mFGFR1 cells in response to luminol SCL; format: cell-based
# Method: After additional 24 h, cells were photographed on the Nikon Ti300 microscope.
# [3] = system: E. coli; settings: treatment with US and luminol for 3 h (20 mM luminol, pH 9), M9 minimal media
# Method: as §1
# OD600 and mCherry fluorescence emission spectra (λex=543±10 nm, λem=575 to 695 nm in 10 nm increments) were measured with a (Biotek Synergy H1) microplate reader in a black 96-well flat-bottom plates (typical volume was 200 μl).
compound,measurement,setting,value
"COc1ccc(-c2cn3c(=O)c(C)nc-3c[nH]2)cc1.Cl [MCLA, 6-(4-Methoxyphenyl)-2-methyl-3,7-dihydroimidazo[1,2-a]pyrazin-3-one Hydrochloride]",induction of mCherry expression,"[1]; MCLA-catalyzed SCL, pDAWN-V28I, 2 h US stimulation, 2 μM MCLA, pH 7",two
COc1cc(OC)cc(-c2cc3cnc(N)nc3nc2NC(=O)NC(C)(C)C)c1 [PD166866],effect of luminol SCL on cell morphology after pre-treatment with inhibitor,"[2]; 10 μM for 1 h before US stimulation (585 kHz, 64% amplitude, 3 h)",abolished
"Nc1cccc2c(=O)[nH][nH]c(=O)c12 [luminol, 5-Amino-2,3-dihydro-1,4-phthalazinedione]",morphological changes in M38K^Opto-mFGFR1 cells,"[2]; luminol SCL, two chambers configuration, 20 mM luminol, US 585 kHz, 64% amplitude, 3 h",induced epithelial-mesenchymal transition (EMT)-like morphological changes
same,induction of mCherry production (increase compared to control experiments),[1]; {},~5 fold
same,reduction of E. coli viability indicators (OD600 and CFUs),[3],~50%
